In brackets after ≈: the same amount, converted by molar mass. Read-outs that look alike come from different tables or passages of the source.
Experiments:
MRSA = assay: MIC against MRSA; format: cell-based, Methicillin-resistant Staphylococcus aureus
[1] = system: drug-resistant GNBs such as Pseudomonas aeruginosa, Escherichia coli, and Acinetobacter baumannii; assay: Growth inhibition of drug-resistant GNBs; format: cell-based; conditions: in words; E. coli species, A. baumannii, P. aeruginosa / gram-negative bacteria
E. coli (KAN) = assay: microbe, parasite or virus in culture; format: cell-based, Escherichia coli
E. coli SFGH 207 = assay: MIC against E. coli SFGH 207; format: cell-based, Escherichia coli
A. baumannii (Resistant) = assay: MIC against A. baumannii (Resistant); format: cell-based, Acinetobacter baumannii
A. baumannii (Sensitive) = assay: MIC against A. baumannii (Sensitive); format: cell-based, Acinetobacter baumannii
E. coli ATCC25922 = assay: MIC against E. coli ATCC25922; format: cell-based, Escherichia coli
E. coli (AMP) = assay: MIC against E. coli (AMP); format: cell-based, Escherichia coli
P. aeruginosa SFGH 427 = assay: MIC against P. aeruginosa SFGH 427; format: cell-based, Pseudomonas aeruginosa
P. aeruginosa SFGH 266 = assay: MIC against P. aeruginosa SFGH 266; format: cell-based, Pseudomonas aeruginosa
[2] = range stated jointly for MRSA and E. coli (ATCC 25922)

With `O=[N+]([O-])c1sccc1S(=O)(=O)F` [compound 1, 2-nitrothiophene-3-sulfonyl fluoride] the MICs (MRSA; MRSA) was 5.28 µg/mL, the MIC (MRSA; [2]) was 1 to 5 µg/mL and the antibacterial activity [1] was “active”. For the same compound, the MICs (E. coli (KAN); E. coli (KAN)) was 0.66 µg/mL, the MICs (E. coli SFGH 207) was 42 µg/mL and the MICs (A. baumannii (Resistant)) was 42 µg/mL. The MICs (A. baumannii (Sensitive)) was 21 µg/mL, the MICs (E. coli ATCC25922; E. coli ATCC25922) was 1.32 µg/mL and the MIC (E. coli ATCC25922; [2]) was 1 to 5 µg/mL. It also gave an MICs (E. coli (AMP)) of 10.6 µg/mL, an MICs (P. aeruginosa SFGH 427) of 84 µg/mL and an MICs (P. aeruginosa SFGH 266) of 42 µg/mL.
`O=C1CN(/N=C/c2ccc([N+](=O)[O-])o2)C(=O)N1` [nitrofurantoin 7, nitrofurantoin, reference compound] gave an MIC (MRSA; Staphylococcus aureus, ATCC 25922 / MRSA, range stated jointly for MRSA and E. coli (ATCC 25922), read-out: MIC) of 5 to 12 µg/mL (≈ 21 to 50.4 µM), an MIC (MRSA; Staphylococcus aureus, MRSA, read-out: MICs) of 12 µg/mL (≈ 50.4 µM) and an MIC (E. coli (KAN); Escherichia coli, read-out: MICs) of 0.37 µg/mL (≈ 1.55 µM). The MIC (E. coli SFGH 207; Escherichia coli, SFGH207) was 6 µg/mL (≈ 25.2 µM), the MIC (A. baumannii (Resistant); Acinetobacter baumannii) was > 95 µg/mL and the MIC (A. baumannii (Sensitive); Acinetobacter baumannii) was > 95 µg/mL. It also gave an MIC (E. coli ATCC25922; Escherichia coli, ATCC25922, range stated jointly for MRSA and E. coli (ATCC 25922), read-out: MIC) of 5 to 12 µg/mL (≈ 21 to 50.4 µM), an MIC (E. coli ATCC25922; Escherichia coli, E. coli ATCC25922, read-out: MICs) of 3 µg/mL (≈ 12.6 µM) and an MIC (E. coli (AMP); Escherichia coli) of 6 µg/mL (≈ 25.2 µM). The MIC (P. aeruginosa SFGH 427; Pseudomonas aeruginosa, SFGH427) was > 95 µg/mL and the MIC (P. aeruginosa SFGH 266; Pseudomonas aeruginosa, SFGH266) was > 95 µg/mL.
